Test results taken from US12070472B2, “Treatment of drug resistant proliferative diseases with telomerase mediated telomere altering compounds” (The Board of Regents of the University of Texas System, priority 2016, dated 2024).

Experiments:
[1] = system: BJ; test: GI 50 determination, BJ; assay type: cell-based; conditions: Homo sapiens; BJ normal cell line
Description: (§1) Cells of each type listed in Table 2 were seeded in chamber slides.

[2] = system: H2087; test: GI 50 determination, H2087; assay type: cell-based; conditions: Homo sapiens, NCI-H2087
Description: as §1

[3] = system: HCC515; test: GI 50 determination, HCC515; assay type: cell-based; conditions: Homo sapiens
Description: as §1

[4] = system: H2009; test: GI 50 determination, H2009; assay type: cell-based; conditions: Homo sapiens, NCI-H2009
Description: as §1

[5] = system: BJ fibroblast cells; test: Cell morphology and cell count after one week, BJ fibroblasts; assay type: cell-based, human; conditions: normal BJ fibroblasts; 3 μM twice during one week
Description: Cancer HCT116 and normal BJ fibroblast cells were treated with 6-thio-dG (3 μM) and 6-thio-G (3 μM) twice during one week. Following one week of the treatment, cell morphology was monitored, and then the cells were collected and counted.

[6] = system: HCT116 cells
Description: (§2) For long-term cellular experiments, HCT116 (1,000 cells/cm^2) and BJ (10,000 cells/cm^2) cells were fed with 6-thio-dG (1, 3, 10 μM) containing medium every three days. The cells were counted and replated every week for 10-16 weeks. Additionally, HCT116 cells (1,000 cells/cm^2) were fed with 6-thio-G (1, 3, 10 μM) every three days and each week cells were counted, collected for TRF (Telomere Restriction Fragment) analysis and replated. HCT116 cells, following treatment with 10 μM 6-thio-dG for 12 weeks, were then treated with a combination of 10 μM 6-thio-dG and 3 μM GRN163L for 2-4 weeks.

[7] = system: BJ fibroblast cells; test: Telomere length assay (TRF), BJ fibroblasts long-term culture; assay type: cell-based, human; conditions: 10 weeks, compared to untreated control
Description: as §2

[8] = molecular target: T1, telomerase (Homo sapiens, UniProt O14746); test: Telomerase activity by TRAP assay in treated HCT116 cells; assay type: cell-based; conditions: HCT116 cells treated with 1 and 10 μM every 3 days for 12 weeks
T1 construct: endogenous in cells; host or cells: HCT116 human colon cancer cells (lysate)
T1 sequence (O14746 whole entry): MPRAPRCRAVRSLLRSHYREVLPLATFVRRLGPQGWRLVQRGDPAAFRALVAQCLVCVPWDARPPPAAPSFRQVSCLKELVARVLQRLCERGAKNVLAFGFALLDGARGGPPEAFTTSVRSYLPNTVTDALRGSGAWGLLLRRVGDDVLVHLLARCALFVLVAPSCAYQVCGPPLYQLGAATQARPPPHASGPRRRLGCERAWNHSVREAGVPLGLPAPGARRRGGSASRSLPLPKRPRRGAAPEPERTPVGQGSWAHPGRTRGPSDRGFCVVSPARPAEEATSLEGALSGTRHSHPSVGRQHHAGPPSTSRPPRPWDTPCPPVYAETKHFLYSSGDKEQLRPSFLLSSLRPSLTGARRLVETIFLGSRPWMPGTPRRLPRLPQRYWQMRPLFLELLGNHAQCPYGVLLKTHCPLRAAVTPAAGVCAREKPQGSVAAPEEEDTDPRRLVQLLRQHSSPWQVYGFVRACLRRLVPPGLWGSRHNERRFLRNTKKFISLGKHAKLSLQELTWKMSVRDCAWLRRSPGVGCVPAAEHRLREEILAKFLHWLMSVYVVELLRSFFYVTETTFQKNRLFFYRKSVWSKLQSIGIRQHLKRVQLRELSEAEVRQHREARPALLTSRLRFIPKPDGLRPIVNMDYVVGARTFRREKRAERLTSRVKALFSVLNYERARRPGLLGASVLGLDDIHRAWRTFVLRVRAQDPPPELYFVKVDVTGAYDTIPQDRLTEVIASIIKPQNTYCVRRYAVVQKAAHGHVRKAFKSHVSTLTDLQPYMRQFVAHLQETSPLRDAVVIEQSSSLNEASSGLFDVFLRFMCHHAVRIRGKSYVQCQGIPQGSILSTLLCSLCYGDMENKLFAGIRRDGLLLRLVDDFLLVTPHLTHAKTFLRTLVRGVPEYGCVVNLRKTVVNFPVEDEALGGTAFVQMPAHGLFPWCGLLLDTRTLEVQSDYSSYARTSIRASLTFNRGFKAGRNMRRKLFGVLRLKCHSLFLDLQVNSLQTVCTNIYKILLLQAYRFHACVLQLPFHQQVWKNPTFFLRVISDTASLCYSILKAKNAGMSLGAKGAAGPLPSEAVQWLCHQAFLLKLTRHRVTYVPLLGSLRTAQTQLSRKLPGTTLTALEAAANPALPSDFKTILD
T1 sequence (O60832 whole entry partner): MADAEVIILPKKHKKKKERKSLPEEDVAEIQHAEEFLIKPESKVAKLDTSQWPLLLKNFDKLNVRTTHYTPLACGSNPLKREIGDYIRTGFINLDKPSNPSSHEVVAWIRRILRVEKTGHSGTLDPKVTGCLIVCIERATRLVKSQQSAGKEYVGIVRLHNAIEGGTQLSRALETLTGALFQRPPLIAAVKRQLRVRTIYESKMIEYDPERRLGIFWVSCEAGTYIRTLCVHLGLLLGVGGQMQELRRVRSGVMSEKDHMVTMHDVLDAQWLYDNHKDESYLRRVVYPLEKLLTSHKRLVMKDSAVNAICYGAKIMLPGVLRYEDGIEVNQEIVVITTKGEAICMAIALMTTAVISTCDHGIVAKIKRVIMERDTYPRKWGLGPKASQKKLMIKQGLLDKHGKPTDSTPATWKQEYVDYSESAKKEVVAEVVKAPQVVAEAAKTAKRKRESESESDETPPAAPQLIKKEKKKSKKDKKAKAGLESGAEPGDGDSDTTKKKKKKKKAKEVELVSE
T1 sequence (Q9NY12 whole entry partner): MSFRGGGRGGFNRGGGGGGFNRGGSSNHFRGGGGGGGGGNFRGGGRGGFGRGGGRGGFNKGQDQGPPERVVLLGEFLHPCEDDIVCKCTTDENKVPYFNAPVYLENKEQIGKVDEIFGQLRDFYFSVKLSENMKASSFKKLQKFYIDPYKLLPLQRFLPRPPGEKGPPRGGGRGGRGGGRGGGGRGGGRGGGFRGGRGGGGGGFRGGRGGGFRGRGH
T1 sequence (Q9NX24 whole entry partner): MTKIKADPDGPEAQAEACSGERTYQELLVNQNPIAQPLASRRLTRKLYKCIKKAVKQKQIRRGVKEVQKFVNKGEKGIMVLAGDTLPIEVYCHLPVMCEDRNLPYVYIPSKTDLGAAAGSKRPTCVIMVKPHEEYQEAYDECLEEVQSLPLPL
T1 sequence (Q9NPE3 whole entry partner): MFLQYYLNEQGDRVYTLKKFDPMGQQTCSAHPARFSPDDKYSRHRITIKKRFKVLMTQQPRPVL
T1 sequence (Q9BUR4 whole entry partner): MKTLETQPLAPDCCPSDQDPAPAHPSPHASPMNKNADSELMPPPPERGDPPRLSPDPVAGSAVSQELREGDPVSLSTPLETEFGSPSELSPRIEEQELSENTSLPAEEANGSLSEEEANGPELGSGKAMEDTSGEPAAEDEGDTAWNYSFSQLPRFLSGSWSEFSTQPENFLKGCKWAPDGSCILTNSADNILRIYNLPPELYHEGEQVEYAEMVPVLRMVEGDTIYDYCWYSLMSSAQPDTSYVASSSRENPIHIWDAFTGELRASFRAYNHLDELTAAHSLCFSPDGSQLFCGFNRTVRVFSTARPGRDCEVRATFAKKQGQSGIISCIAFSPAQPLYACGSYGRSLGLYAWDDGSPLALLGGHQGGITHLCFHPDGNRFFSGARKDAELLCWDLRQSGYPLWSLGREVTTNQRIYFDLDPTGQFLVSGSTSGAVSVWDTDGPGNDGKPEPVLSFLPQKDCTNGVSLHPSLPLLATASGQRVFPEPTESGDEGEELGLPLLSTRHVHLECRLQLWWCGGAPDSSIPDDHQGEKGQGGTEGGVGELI
Description: Telomerase activity was measured by the TRAP assay (Telomeric Repeat Amplification Protocol as described in Shay J. W. and Bacchetti S., “A survey of telomerase activity in human cancer,” European Journal of Cancer 1997; 33:787-91.). Briefly, HCT116 cells were treated with 1 or 10 μM 6-thio-dG for 1-12 weeks. 1×10^5 cells were collected and lysed with ice-cold NP-40 lysis buffer (10 mM Tris-HCl pH 8.0, 1.0 mM MgCl2, 1 mM EDTA, 1% NP-40, 0.25 mM sodium deoxycholate, 10% glycerol, 150 mM NaCl, 5 mM β-mercaptoethanol) for 30 min. One microliter cellular lysate for 2500 cells was used for each reaction. Hela cells were used as a positive control and lysis buffer was used as a negative control. Samples were prepared and then the telomerase extension products were amplified using PCR (95° C. for 5 min to inactivate telomerase, then 95° C. for 30 sec, 52° C. for 30 sec, 72° C. for 30 sec; 24 cycles). Samples were run on a 10% non-denaturating acrylamide gel and visualized using a Typhoon PhosphorImager scanner system (Molecular Dynamics, GE Healthcare, Piscataway, NJ) that is capable of reading Cy5 fluorescence.

[9] = system: HCT116 cells; remark: listed apart in the source
Description: Following the treatment cells were seeded at different densities and the cultured for 10 days.

[10] = system: HCT116 cells; test: Tumor growth in xenograft animal model with HCT116 cells; assay type: in vivo, mice; conditions: 2 mg/kg IP every two days, 6 injections
Description: Doses of 2 mg/kg of 6-thio-dG and 2 mg/kg of 6-thio-G were IP injected every two days for a total of 6 injections into mice. DMSO injections were used for the control. The volume of the tumor was measured.

[11] = mouse, in vivo, 5 mg/kg
Description: Six WT mice were treated with 1.67 mg of 6-thio-dG/kg of body weight daily. Six WT mice were treated with 1.67 mg of 6-thio-G/kg of body weight daily. Six WT mice were treated with 5 mg of 6-thio-dG/kg of body weight daily. Six WT mice were treated with 5 mg of 6-thio-G/kg of body weight daily. The mice were given the appropriate dosage and weighed daily for 25 days.

[12] = system: H1993; test: NSCLC panel sensitivity to 6-thio-dG, H1993; assay type: cell-based, human
Description: (§3) A panel of NSCLC cell lines was tested for sensitivity to 6-thio-dG by performing a cell count after 1 week treatment. Briefly, cells were treated with 3 μM 6-thio-dG every three days for 1 week. Viable cells were counted at the end of treatment. Each 6-thiodG treated cell line was normalized to its DMSO treated control.
(§4) Two isogenic pairs of NSCLC cell lines were studied for sensitization to 6-thio-dG treatment.

[13] = system: H2085; test: NSCLC panel sensitivity to 6-thio-dG, H2085; assay type: cell-based; conditions: Homo sapiens
Description: as §3, with “control. The results of the cell count are depicted in FIG. 12, with the various cell lines arranged in descending resistance to 6-thio-dG from left to right. […] The IC50 values for the whole panel of tested cells are depicted in FIG. 13. The IC50 values for tested cells are depicted as a column scatter graph in FIG. 14.” for “control.”

[14] = system: H2343; test: NSCLC panel sensitivity to 6-thio-dG, H2343; assay type: cell-based; conditions: Homo sapiens
Description: as §3, with “control. The results of the cell count are depicted in FIG. 12, with the various cell lines arranged in descending resistance to 6-thio-dG from left to right. […] The IC50 values for the whole panel of tested cells are depicted in FIG. 13. The IC50 values for tested cells are depicted as a column scatter graph in FIG. 14.” for “control.”

[15] = system: H2073; test: NSCLC panel sensitivity to 6-thio-dG, H2073; assay type: cell-based; conditions: Homo sapiens, NCI-H2073
Excerpt: as §4

[16] = system: paclitaxel/carboplatin resistant H1299; test: 6-thio-dG on paclitaxel/carboplatin resistant H1299, cell count; assay type: cell-based, human; conditions: 1, 3, 10 μM every three days for one week
Description: (§5) A cell count was performed to measure cell growth/death.

[17] = system: paclitaxel/carboplatin resistant H1355; test: 6-thio-dG on paclitaxel/carboplatin resistant H1355, cell count; assay type: cell-based, human; conditions: 1, 3, 10 μM every three days for one week
Description: as §5

[18] = system: H1693; test: 6-thio-dG on H1693 parental and paclitaxel/carboplatin resistant lines; assay type: cell-based, human; conditions: 1, 3, 10 μM
Description: The resulting resistant lines and their parents were tested for the effect of 6-thio-dG at 1, 3, and 10 μM concentrations.

[19] = system: HCT116 cells; conditions: 3 μM
Description: The TIF assay is based on the co-localization detection of DNA damage by an antibody against DNA damage markers such as gamma-H2AX and telomeres by the telomeric protein TRF2. Briefly, HCT116 cells were plated in 4-well chamber slides and after the cells attached to the surface, either 3 μM 6-thio-dG or 3 μM 6-thio-G was added to the medium at different time points (0, 30 min, 12 h, 24 h, 48 h, 72 h). Slides were rinsed once with PBS and fixed in 4% paraformaldehyde in PBS for 10 min. Then, cells were washed twice with PBS and permeabilized in 0.5% Nonidet-P40 in PBS, blocked with 0.5% Bovine Serum Albumin (BSA) and 0.2% fish gelatin in PBS for 30 min. gamma-H2AX (mouse) (Millipore, Billerica, MA) was diluted 1:1000 and TRF2 (rabbit) (Abcam, Cambridge, MA) was diluted 1:200 in blocking solution and this primary Ab mixture was incubated on cells for 2 h. After three washes with PBST (1×PBS in 0.1% Triton) and 3 washes with PBS, cells were incubated with Alexaflour 488 conjugated goat anti rabbit (1:500) (Invitrogen, Grand Island, NY) and Alexaflour 568 conjugated goat anti mouse (1:500) (Invitrogen) for 40 min, then washed six times with PBS. After drying, the slides were mounted with Vectashield mounting medium with DAPI (Vector Laboratories, Burlingame, CA). […] TIFs were quantified using Imaris software. […]

Nc1nc2c(ncn2[C@H]2C[C@H](O)[C@@H](CO)O2)c(=S)[nH]1 [6-thio-dG, 6-thio-2′-deoxyguanosine]
GI50 [1]: > 100000 nM | GI50 [2]: 900 nM | GI50 [3]: 2400 nM | GI50 [4]: 2600 nM | morphology and cell counts [5]: only slightly affected | telomere shortening (TRF) ([6]; 1 μM or 10 μM every 3 days, 12 weeks): dramatic telomere shortening | telomere length on continued treatment (TRF) ([6]; 10 μM 6-thio-dG for 12 weeks, continued to 16 weeks): exhibited stablized telomeres | acquisition of resistance (cell growth) ([6]; 1, 3, 10 μM, weekly over 10 weeks): begin to acquire resistance to the treatment by the third week | telomere length after drug removal (TRF) ([6]; 12 weeks 6-thio-dG, then normal medium without drug 2-4 weeks): remained about the same as after 12 week of 6-thio-dG treatment | telomere shortening (TRF) [7]: did not show enhanced telomere shortening | inhibition of telomerase activity (TRAP) [8]: no inhibition of telomerase activity was observed | survival fraction ([9]; 3 μM, after 72 hours irradiated, cultured 10 days): lower than cells treated with 6-thio-G | cell viability ([9]; cell titer glow luminescent assay): lower than cells treated with 6-thio-G | rate of tumor growth (tumor volume) [10]: rate of tumor growth was less | weight loss [11]: only modest weight loss | survival rate ([12]; H1993, 3 μM every three days for 1 week, normalized to DMSO control): greater than 50% | IC50 ([12]; Homo sapiens, NCI-H1993): > 100000 nM | IC50 [13]: 3000 to 7000 nM | IC50 [14]: 3000 to 7000 nM | IC50 [15]: > 700 nM | sensitivity (cell count) [16]: sensitive to all three concentrations | sensitivity (cell count) [17]: sensitive to all three concentrations | sensitivity [18]: resistant to 6-thio-dG | increase in telomeric DNA damage as compared to 6-thio-G ([19]; after 72 h): 2.8 fold | genomic DNA damage ([19]; compared to 6-thio-G): overall increase in genomic DNA damage
